From patent US6828439B1, “Compounds, composition, and methods for photodynamic therapy” (Advanced Research and Technology Institute, Inc., priority 1999, dated 2004)
Entries after “also recorded” stand apart in the source; their conditions may differ. Each block holds one compound with its values, some of them ahead of it.

Key:
[1] = literature values; cited from earlier work
[2] = 95° C. for several days; cited from earlier work
pUC118 = assay: Photochemical DNA cleavage by Cu(II) diazo complex, agarose gel (Example VI); assay type: biochemical; conditions: 25 μm, 20° C.; for DNA forms in thermal and photochemical control studies: 1 hour incubation or 455 nm light, lanes 3-11
Description: FIG. 10 illustrates DNA-cleavage of 50 μM pUC 118 plasmid DNA by bis(9-diazo-4,5-diazafluorene)copper(II) nitrate following 455 nm photolysis for 1 hour at 20° C. pursuant to 2% agarose gel electrophoresis.
FIG. 10 illustrates the DNA cleavage of 50 μM pUC118 by this compound following 455 nm photolysis for 1 hour at 20° C. (agarose gel, 2%).
Three forms of […] plasmid DNA were prepared for use in the […] assay. Form I was supercoiled plasmid. Form II was nicked plasmid. Form III was linear plasmid. The three plasmid forms were subjected to 11 lanes of varying conditions. Lane 1 pertained to the DNA forms alone. Lane 2 involved an EcoR1 digest of the DNA, which was used as a marker. In lane 3, the DNA was subjected for 1 hour to light at a wavelength of 455 nm. In lane 4, the DNA was subjected to 25 μm Cu(II) (diazafluorenone)2^2+ for 1 hour incubation. In lane 5, the DNA was subjected to 25 μm Cu(II) (diazafluorenone)2^2+ in the presence of light at a wavelength of 455 nm for 1 hour. Lane 6 subjected the DNA to 25 μm of 9-diazafluorene in the presence of light at a wavelength of 455 nm for 1 hour. In lane 7, the DNA was subjected to 25 μm 9-diazo-4,5-diazafluorene in the presence of light at a wavelength of 455 nm for 1 hour. In lane 8, the DNA was subjected to 25 μm bis(9-diazo-4,5-diazafluorene)copper(II) nitrate rapid quench. In lane 9, the DNA was subjected to 25 μm bis(9-diazo-4,5-diazafluorene)copper(II) nitrate for 1 hour incubation. In lane 10, the DNA was subjected to 25 μm bis(9-diazo-4,5-diazafluorene)copper(II) nitrate for 1 hour incubation at 37° C. In lane 11, the DNA was subjected to 25 μm bis(9-diazo-4,5-diazafluorene)copper(II) nitrate for 1 hour at a wavelength of 455 nm.

[3] = Anaerobic photolysis in acetonitrile at 345 nm and 455 nm monitored by UV/Vis spectrophotometry; assay type: physicochemical; conditions: for Photolysis reactivity of free ligand / kobs of photolysis (first order): acetonitrile; for kobs of photolysis (first order): anaerobic
Description: FIG. 7 depicts electronic absorption profiles of anaerobic photolyses of […] acetonitrile solutions of compound 5 at: (a) 345 nm; and (b) 455 nm.
Although the CT excited states appeared to satisfy the energy requirement, it was unknown if sufficient excited state lifetime existed to drive photodecomposition of the ligand. […] In both cases, significant photobleaching was observed, consistent with formation of Fe(II) in solution. This observation was further supported by the reemergence of color following aerial oxidation.
This can be attributed to the greater extinction coefficient at 345 nm (ε=9000 M^−1cm^−1) relative to 455 nm (ε=5450 M^−1cm^−1), and the simultaneous excitation of the LMCT and n-π* transitions of the Fe(III) compound, both of which lead to denitrogenation.
To investigate this dual state hypothesis, identical photolyses were carried out on solutions of 4 in acetonitrile.

pUC 118 plasmid DNA = assay: Photoinduced cleavage of pUC 118 plasmid DNA by compound 5, agarose gel electrophoresis (Example IV); assay type: biochemical
Description: FIG. 8 illustrates the photoinduced DNA-cleavage of 30 μM/bp of pUC 118 plasmid DNA by 300 μM of compound 5 following 400 nm photolysis for 12 hours at 20° C. pursuant to 2% agarose gel electrophoresis.
Cleavage ability was determined by its effectiveness in converting circular supercoiled DNA (form I) to circular relaxed DNA (form II) and linear DNA (form III). FIG. 8 illustrates the agarose gel electrophoresis of photolysis products of 300 μM 5 in the presence of pUC 118 plasmid DNA (30 μM/bp). Solutions were irradiated for 12 hours in 1:9 DMSO:Tris buffer (20 mM, pH 7.55) at 400 nm. Photolyses were performed at 400 NM (rather than 455 NM) due to a soluatochronic blue shift in the optical absorption spectrum.

[4] = N2 extrusion on photolysis, headspace GC/MS; assay type: physicochemical; conditions: degassed benzonitrile under argon, average of 4 trials
Description: To correlate the observed reactivity with N2 extrusion, a series of wavelength dependent photolyses were performed on 800 μL solutions of 5 under argon in degassed benzonitrile. From headspace GC/MS analysis, N2 production was gauged by comparison of the N2/O2 ratios above the photolyzed samples relative to unphotolyzed controls. […] Taken together, these experiments provide compelling evidence that the overall strategy to induce radical formation from CT excited states is indeed operative.

[5] = Thermal reactivity of Pd metalloenediynes; assay type: physicochemical; conditions: room temperature
Description: The thermal reactivity of the complex was as follows. […] The reaction was followed by ^31p NMR analysis. The chemical shift of the complex was −5.71 ppm while that of the free ligand was −32.1 ppm. After 11 hours, there was evidence of the complex, free ligand, and 2 other resonances at −10.6 ppm and 25.4 ppm. […] A shift downfield was expected for the cyclized product and this could help explain the resonance at 25.4 ppm. […] What may have happened is that a ligand dissociated from the metal after cyclizing (−10.6 ppm) and then it reassociated with the metal (25.5 ppm). From the crystal structure, the environment around the metal was strained as is evident in the Pd—P—C bending. Additionally, the bite-angle of the resulting cyclized product, 1,2-bis(diphenylphosphino)naphthalene, would be smaller than that which would be required for tetrahedral geometry. This dissociation/reassociation may be slow enough to be detected on the NMR timescale.
Although crystallographic structural characterization of Pd(dppeb)Cl2 is unavailable, the d^8 Pd2^+ geometry is likely square planar with P—Pd—P angles near 90° which would reduce the alkyne carbon termini distances and lower the thermal barrier to cyclization. […]

HIV = conditions: human, in vivo; cited from earlier work

SMILES: C(#CP(c1ccccc1)c1ccccc1)c1ccccc1C#CP(c1ccccc1)c1ccccc1
Bergman cyclization temperature reported in the literature [1]: 243 °C | Thermal stability in the presence of a hydrogen donor [2]: stable

SMILES: [N-]=[N+]=C1c2cccnc2-c2ncccc21 [9-diazo-4,5-diazafluorene, reference compound]
DNA forms in thermal and photochemical control studies (pUC118): very small and comparable amounts of the nicked form; also recorded: did not exhibit any preferential thermal or photochemical DNA cleavage

Photolysis reactivity of free ligand ([3]; 345 nm): noticeably reduced reaction rate | Photolysis reactivity of free ligand ([3]; 455 nm): no reactivity
SMILES: O=c1c2ccccc2nnn1O [Compound 4, 3-Hydroxy-1,2,3-benzotriazine-4(3H)-one, reference compound]
DNA forms produced by photolysis of free ligand (pUC 118 plasmid DNA; 900 μM free ligand, 400 nm, 12 hours, lane 6): a small amount of form II

Wavelength up to which reactivity was demonstrated [3]: up to 515 nm | Increased N2 content versus unphotolyzed controls ([4]; 345 nm): 112% | Increased N2 content versus unphotolyzed controls ([4]; 455 nm): 9.7%
SMILES: O=c1c2ccccc2nnn1[O-].O=c1c2ccccc2nnn1[O-].O=c1c2ccccc2nnn1[O-].[Fe+3] [Compound 5, Fe(3-Hydroxy-1,2,3-benzotriazine-4(3H)-one)3]
kobs of photolysis (first order) ([3]; 345 nm): 0.093 min⁻¹ | kobs of photolysis (first order) ([3]; 455 nm): 0.004 min⁻¹ | DNA forms produced by photolysis (form I supercoiled, form II nicked, form III linear) (pUC 118 plasmid DNA; 300 μM 5, pUC 118 30 μM/bp, 400 nm, 12 hours, 1:9 DMSO:Tris buffer (20 mM, pH 7.55), lane 3): a mixture of linear and nicked forms | DNA cleavage on thermal incubation (pUC 118 plasmid DNA; similar thermal incubation without light, lane 4): no DNA cleavage

SMILES: C(#CP(c1ccccc1)c1ccccc1)c1ccccc1C#CP(c1ccccc1)c1ccccc1.C(#CP(c1ccccc1)c1ccccc1)c1ccccc1C#CP(c1ccccc1)c1ccccc1.[Pd] [Pd(dppeb)2]
Thermal stability [5]: stable at room temperature

SMILES: O=[N+]([O-])[O-].O=[N+]([O-])[O-].[Cu+2].[N-]=[N+]=C1c2cccnc2-c2ncccc21.[N-]=[N+]=C1c2cccnc2-c2ncccc21 [bis(9-diazo-4,5-diazafluorene)copper(II) nitrate]
DNA forms in thermal and photochemical control studies (pUC118): very small and comparable amounts of the nicked form | DNA forms after photolysis (pUC118; 455 nm, 1 hour, 10 mM Tris pH 7.6, 50 μM pUC118, lane 11): predominantly nicked DNA with a moderate amount of the linear form

SMILES: Nc1ccn([C@H]2CC[C@@H](CO)O2)c(=O)n1 [ddC, 2′3′-dideoxycytidine]
Virustatic range in most patients (HIV): 0.005-0.25 mg/kg body weight
